Consider one substance from patent US20230024584A1, “ANTI-CANCER COMPOSITIONS AND METHODS” (University of Kentucky Research Foundation, priority 2019, published 2023).

Holding throughout (format): cell-based
The subject of experiment [1] is SUM159, LM2, MCF-7, 4T1, 4T1luc and MDA-MB-453 cells. The experiment can be described thus: Clonogenic assay, breast cancer cell lines. To be noted: 1.25, 2.5 or 5 μM for 72 h, then 10 days culture. The procedure:
Clonogenic assays were also performed to determine the effect of lomitapide treatment on various breast cancer cell lines, with data reflected in FIGS. 22A-22G. Initially, 100 SUM159, LM2, MCF-7, 4T1 or 4T1^luc cells, or 1000 MDA-MB-453 cells were seeded into 6-cm cell culture dishes. After overnight culture, vehicle control (DMSO) or lomitapide (final concentration: 1.25, 2.5 or 5 μM) were added into the corresponding dishes. After 72 h culture, the DMSO- or lomitapide-containing media were removed and the fresh culture media were added in followed by additional 10 days culture. The culture media were replaced with fresh media every three days. At the end of cell culture, the final clones in dishes were fixed by 4% paraformaldehyde and stained with crystal violet. FIG. 22A includes representative images from each treatment groups, and FIGS. 22B-22G include the quantitation of clone numbers (mean standard deviation, n=3). * p<0.05, compared to vehicle control (negative control) treatment group.

Experiment [2] concerns SUM19, MCF-7, MDA-MB-453 and 4T1luc cells. Briefly: Suspension culture sphere formation assay, breast cancer cells. The following applies: 1.25, 2.5 or 5 μM, 10 days. The procedure: With reference to FIGS. 24A and 24B, the effect of lomitapide treatment on cancer stem cell-like property of breast cancer cells was further studied. Initially, 2500 breast cancer SUM19, MCF-7, MDA-MB-453 or 4T1^luc cells were seeded into […] 24-well plates; meanwhile, vehicle control (DMSO) or lomitapide (final concentration: 1.25, 2.5 or 5 μM) were added into corresponding wells. After 10-days continuous culture, the final spheres formed were imaged and counted under an inverted phase-contrast microscope. FIG. 24A includes representative sphere images from each treatment groups. FIG. 24B includes the quantitation of sphere numbers (mean±standard deviation, n=3). * p<0.05, compared to vehicle control (negative control) treatment group.

Another experiment concerns breast cancer cells. Briefly: Cell cycle analysis, breast cancer cells. To be noted: 5 μM; 24, 48 and 72 h. The procedure:
Initially, 0.1˜0.3 million of breast cancer cells were seeded into 6 cm culture dish and cultured overnight; then, the culture media were switched into FBS free medium for serum-starvation for 24 h for cell synchronization. After synchronization, the culture media were changed into FBS-containing medium and vehicle control (DMSO) or lomitapide (final concentration: 5 μM) were added into corresponding dishes. After 24, 48 and 72 h culture, cells were harvested, fixed by ice-cold ethanol, stained by PI for flow cytometry analysis of cell cycle. The results are presented as mean±standard deviation (n=3). * p<0.05, compared to vehicle control (negative control) treatment group.

Experiment [3] has as its system MCF-7, LM2 and 4T1luc cells. Briefly: Apoptosis (7-AAD/APC-annexin V flow cytometry), breast cancer cells. The following applies: 1.25, 2.5 or 5 μM, 48 h. The procedure:
(§1) With reference to FIGS. 26A-26C, studies were also conducted to determine the effect of lomitapide treatment on apoptosis of breast cancer cells. Initially, 0.1-0.3 million MCF-7, LM2 or 4T1^luc cells were seeded into 6 cm cell culture dishes and cultured overnight. Vehicle control (DMSO) or lomitapide (final concentration: 1.25, 2.5 or 5 μM) was added then into corresponding dishes. After 48 h incubation, the cells were harvested, stained by 7-AAD/APC-annixin V and analyzed by flow cytometry. The results are presented as mean±standard deviation (n=3). * p<0.05, compared to vehicle control (negative control) treatment group.

In experiment [4] the test system is H1975, PC9, PC9GR4 and H460 cells. The experiment can be described thus: Clonogenic assay, lung cancer cell lines. The following applies: 1.25, 2.5 or 5 μM for 72 h, then 10 days culture. The procedure:
(§2) Clonogenic assays were also performed to determine the effect of lomitapide treatment on various lung cancer cell lines, with data reflected in FIGS. 28A-28E. Initially, 100 H1975, PC9, PC9GR4, or H460 cells were seeded into 6-cm cell culture dishes. After overnight culture, vehicle control (DMSO) or lomitapide (final concentration: 1.25, 2.5 or 5 μM) were added into the corresponding dishes. After 72 h culture, the DMSO- or lomitapide-containing media were removed and the fresh culture media were added in followed by additional 10 days culture. The culture media were replaced with fresh media every three days. At the end of cell culture, the final clones in dishes were fixed by 4% paraformaldehyde and stained with crystal violet. FIG. 28A includes representative images from each treatment groups. FIGS. 28B-28E include quantitation of clone numbers (mean±standard deviation, n=3). * p<0.05, compared to vehicle control (negative control) treatment group.

The next experiment deals with PC9GR4 and A549 cells. The experiment can be described thus: Apoptosis (7-AAD/APC-annexin V flow cytometry), lung cancer cells. The following applies: 1.25, 2.5 or 5 μM, 48 h. The procedure: as §1, with “29A and 29B,” for “26A-26C,”, “lung” for “breast”, “PC9GR4” for “MCF-7, LM2”, “A549” for “4T1^luc”
Experiment [5] concerns DLD1, PT130 and SW480 cells. Briefly: Clonogenic assay, colon cancer cell lines. The following applies: 1.25, 2.5 or 5 μM for 72 h, then 10 days culture. The procedure:
as §2, with “Initially,” for “Clonogenic assays were also performed to determine the effect of lomitapide treatment on various lung cancer cell lines, with data reflected in FIGS. 28A-28E. Initially,”, “DLD1, PT130” for “H1975, PC9, PC9GR4,”, “SW480” for “H460”, “32A” for “28A”, “32B-32D” for “28B-28E”

Take lomitapide: the “breast cancer cell growth (clone numbers)” value in experiment [1] is recorded as “significantly reduces breast cancer cell growth”. Moreover, the “cancer stem cell-like property (sphere numbers)” value in experiment [2] is listed as “significantly reduces cancer stem cell-like property”. Moreover, the cell cycle distribution entry in the experiment with breast cancer cells is recorded as “significant G1 phase cell cycle arrest”. Further, the apoptosis entry is reported as “induces apoptosis” in experiment [3]; “induces apoptosis” with PC9GR4 and A549 cells. In addition, the “lung cancer cell growth (clone numbers)” value in experiment [4] is on record as “significantly reduces lung cancer cell growth”. In addition, the “colon cancer cell growth (clone numbers)” value in experiment [5] is recorded as “significantly reduces colon cancer cell growth”.
